Some results are limits rather than exact numbers.

One compound from patent publication US20240360145A1, “PYRIMIDINE-2,4-DIAMINE DERIVATIVES AS WELL AS PREPARATION METHOD THEREFOR AND USE THEREOF” (LISEN THERAPEUTICS, INC., priority 2022, published 2024) can be followed below.

Format in all cases: cell-based
Test [1] relates to Cal-62 (thyroid cancer). Briefly: Cell viability IC50 (CellTiter-Glo), Cal-62. Particulars: Homo sapiens, Cal-62, 72 hours. On the procedure: (§1) The cancer cell lines were cultured to the logarithmic growth phase according to conventional culture methods, and the cells were inoculated into a 384-well plate at a density of 2,000 cells/well in a volume of 40 μl/well. The concentrations of added compounds were: […], 1.67 μM, 0.56 μM, 0.19 μM, 0.062 μM, 0.021 μM, 0.0069 μM, 0.0023 μM, 0.00076 μM, and 0 μM. After 72 hours, cell viability was detected using the CellTiter-Glo™ Detection Kit.
A general note: Cellular ATP, detected with luciferase, serves as a proxy for viable cell number.

The subject of test [2] is MDA-MB-231 (breast cancer). Briefly: Cell viability IC50 (CellTiter-Glo), MDA-MB-231. Particulars: Homo sapiens, MDA-MB-231, 72 hours. On the procedure:
as §1

For test [3], the system named is MiaPaca-2 (pancreatic cancer). Briefly: Cell viability IC50 (CellTiter-Glo), MiaPaca-2. Particulars: Homo sapiens, MIA PaCa-2, MiaPaca-2, 72 hours. On the procedure:
as §1

For test [4], the system named is A375 (melanoma). Briefly: Cell viability IC50 (CellTiter-Glo), A375. Particulars: Homo sapiens, A-375, A375, 72 hours. On the procedure: as §1
Test [5] has as its system HT29 (colon cancer). Briefly: Cell viability IC50 (CellTiter-Glo), HT29. Conditions: Homo sapiens, HT-29, HT29, 72 hours. On the procedure: as §1
The subject of test [6] is LN-18 (glioma). Briefly: Cell viability IC50 (CellTiter-Glo), LN-18. Conditions: Homo sapiens, LN-18, 72 hours. On the procedure: as §1
Test [7] concerns AGS (gastric cancer). Briefly: Cell viability IC50 (CellTiter-Glo), AGS. Conditions: 72 hours. On the procedure:
as §1

The subject of test [8] is NCI-H1688 cells. Briefly: Cell viability IC50 (CCK-8), small cell lung cancer cell line H1688. Conditions: NCI-H1688; H1688, CCK-8. On the procedure:
(§2) Small cell lung cancer cell lines DMS114, NCI-H1688, NCI-H82, NCI-H146, and NCI-H446 cells were cultured in RPMI-1640 medium containing 10% fetal bovine serum and 1% penicillin-streptomycin. All the cells were cultured in a constant temperature incubator containing 5% CO2 at 37° C.
(§3) Small cell lung cancer is a highly heterogeneous malignant tumor, and its clinical treatment is mainly based on traditional chemotherapy (mainly platinum medicaments and etoposide). In order to study the anti-tumor activity of the compounds of the present disclosure in small cell lung cancer, the CCK-8 method was used to investigate the cell viability IC50 of compound 8 for five small cell lung cancer cell lines.

Test [9] concerns Hela (cervical cancer). Briefly: Cell viability IC50 (CellTiter-Glo), Hela. Conditions: Homo sapiens, 72 hours. On the procedure: as §1
The subject of test [10] is PE062 primary cells. Briefly: Cell viability IC50 (CCK-8), primary cells PE062 from small cell lung cancer pleural effusion. Conditions: PE062, CCK-8. On the procedure: (§4) (1) The pleural effusion was poured into a 15 mL or 50 mL of sterilized centrifuge tube for centrifugation. Centrifugation conditions: 800 to 1000 rpm, 5 min.
(§5) (2) The precipitate was resuspended and washed for 2 to 3 times with PBS.
(§6) (3) The cell precipitate was resuspended with complete culture medium (α-MEM medium containing 10% fetal bovine serum and 2% penicillin-streptomycin), and the flocculent matter in the pleural effusion was removed using a sterilized cell sieve.
(§7) (4) The red blood cells in the pleural effusion were removed with lymphocyte separation fluid, and the tumor cells and lymphocyte components were collected. The number of tumor cells was observed under a microscope, and the cells were inoculated.
(§8) (5) After 24 hours, the supernatant was discarded, and fresh culture medium was added for further culture.
(§9) (6) The cell growth status was observed, and it was determined based on the cell status whether the medium was required to be continuously changed to remove blood cells. When the cells grew to a density of 80% to 90%, the cells were preserved.
(§10) (1) Primary cells from lung cancer pleural effusion within 5 generations were cultured to the logarithmic growth phase. […] After centrifugation at room temperature, the supernatant was discarded, and the cell precipitate was resuspended with fresh complete culture medium. After counting, the cells were placed at room temperature for later use. The cells were inoculated into a 384-well plate at a density of 2000 cells/well with a volume of 40 μl/well. The wells at the outermost circle of the plate were not inoculated with cells, and instead, added with sterile water to reduce evaporation of the culture medium.
(§11) (2) After overnight culture of the cells, the medium was discarded, and a fresh medium containing different concentrations of compounds was added at 200 μl/well. The dilution method of the compound was as follows: first the compound with the highest concentration of 10 μM was prepared, and then the compound was diluted for 3 times in sequence. […] At the same time, a blank control group was set up, in which only an equal volume of culture medium was added without adding cells. Five replicate wells were set up for each group. The cells were placed in the incubator for further culture.
(§12) (3) After 72 hours, 8 μl of CCK-8 solution, which was double-diluted with 10 mM PBS, was added to each well, and the cells were shaken and placed in an incubator at 37° C. for further culture for 2 hours.
(4) The light absorbance value at 450 nm was read using a microplate reader, and the IC50 was calculated according to the absorbance value. The calculation method was the same as above.
(1) Sample information: PE039, PE052, and PE062 were all primary cell samples from pleural effusion of patients with small cell lung cancer, and LT015 was a primary cell sample from bronchoscopic biopsy of a patient with small cell lung cancer.
(2) CCK-8 detection was used to detect the IC50 values of different medicaments (compounds).

Test [11] deals with primary cells from pleural effusion of patients with small cell lung cancer. Briefly: Cell viability IC50 (CCK-8), summary over primary cells from pleural effusion of patients with small cell lung cancer. Particulars: Homo sapiens; range over primary cells of patients with small cell lung cancer (Table 4). On the procedure: (1) Primary cells from lung cancer pleural effusion within 5 generations were cultured to the logarithmic growth phase. When the confluence reached about 90%, the cells were digested with 0.25% trypsin, and complete culture medium was added to collect the cells. After centrifugation at room temperature, the supernatant was discarded, and the cell precipitate was resuspended with fresh complete culture medium. After counting, the cells were placed at room temperature for later use. The cells were inoculated into a 384-well plate at a density of 2000 cells/well with a volume of 40 μl/well. The wells at the outermost circle of the plate were not inoculated with cells, and instead, added with sterile water to reduce evaporation of the culture medium.
(2) After overnight culture of the cells, the medium was discarded, and a fresh medium containing different concentrations of compounds was added at 200 μl/well. The dilution method of the compound was as follows: first the compound with the highest concentration of 10 μM was prepared, and then the compound was diluted for 3 times in sequence. […] At the same time, a blank control group was set up, in which only an equal volume of culture medium was added without adding cells. […]
(4) The light absorbance value at 450 nm was read using a microplate reader, and the IC50 was calculated according to the absorbance value. […]

For test [12], the system named is KYSE-70 (esophageal cancer). Briefly: Cell viability IC50 (CellTiter-Glo), KYSE-70. Particulars: Homo sapiens, KYSE-70, 72 hours. On the procedure:
as §1

For test [13], the system named is HCT116 (colon cancer). Briefly: Cell viability IC50 (CellTiter-Glo), HCT116. Conditions: Homo sapiens, HCT-116, HCT116, 72 hours. On the procedure: as §1
Test [14] concerns NCI-H146 cells. Briefly: Cell viability IC50 (CCK-8), small cell lung cancer cell line H146. Particulars: Homo sapiens, NCI-H146; H146, CCK-8. On the procedure: as §2, §3
Test [15] concerns Hep3B (liver cancer). Briefly: Cell viability IC50 (CellTiter-Glo), Hep3B. Conditions: Homo sapiens, 72 hours. On the procedure: as §1
The subject of test [16] is PC-3 (prostate cancer). Briefly: Cell viability IC50 (CellTiter-Glo), PC-3. Conditions: PC-3, 72 hours. On the procedure: as §1
Test [17] deals with PE039 primary cells. Briefly: Cell viability IC50 (CCK-8), primary cells PE039 from small cell lung cancer pleural effusion. Conditions: PE039, CCK-8. On the procedure: as §4, §5, §6, §7, §8, §9, §10, §11, §12
(4) The light absorbance value at 450 nm was read using a microplate reader, and the IC50 was calculated according to the absorbance value. The calculation method was the same as above. […]

In the case of `CN1CC2CCC(C1)N2Cc1ccc(Nc2ncc(Cl)c(Nc3ccccc3S(=O)(=O)N(C)C)n2)cc1` [Compound 8, 2-((5-chloro-2-((4-((3-methyl-3,8-diazabicyclo[3.2.1]octan-8-yl)methyl)phenyl)amino)pyrimidin-4-yl)amino)-N,N-dimethylbenzenesulfonamide], the IC50 in test [1] turned out to be 21.9 nM; in test [2], 49.9 nM; in test [3], 13.2 nM; in test [4], 23.3 nM; in test [5], 190 nM; in [6], 7.8 nM. Also, the IC50 in [7] was 36.2 nM; in [8], 5.01 nM; in test [9] it was 123 nM; in test [10], 2.7 nM; in test [11] it was 2.7 to 59.9 nM; in test [12], 122 nM. The IC50 is 9 nM in [13]; 9.92 nM in test [14]; 185 nM in [15]; > 3000 nM in [16]; 51.5 nM in [17].

As usually defined, the IC50 is the concentration needed to halve the response being measured. Read a low IC50 as inhibition by little substance.
